Test results as given in patent US7820623B2 (priority 2006, dated 2010).
Bridge positions count the residues as written; N and C are the ends. Peptide text beside a SMILES is read from it.

Experiments:
[1] = test system: thapsigargin-induced IFN-g production in human whole blood; format: cell-based; conditions: read-out: Analogue Activity (IC50) WB/IFNg
[2] = test system: thapsigargin-induced IL-2 production in human whole blood; conditions: read-out: Analogue Activity (IC50) WB/IL-2
human Kv1.3 = human Kv1.3 (Homo sapiens, UniProt P22001); format: cell-based; parameters: expressed in transfected cells
Sequence of human Kv1.3 (P22001 whole entry): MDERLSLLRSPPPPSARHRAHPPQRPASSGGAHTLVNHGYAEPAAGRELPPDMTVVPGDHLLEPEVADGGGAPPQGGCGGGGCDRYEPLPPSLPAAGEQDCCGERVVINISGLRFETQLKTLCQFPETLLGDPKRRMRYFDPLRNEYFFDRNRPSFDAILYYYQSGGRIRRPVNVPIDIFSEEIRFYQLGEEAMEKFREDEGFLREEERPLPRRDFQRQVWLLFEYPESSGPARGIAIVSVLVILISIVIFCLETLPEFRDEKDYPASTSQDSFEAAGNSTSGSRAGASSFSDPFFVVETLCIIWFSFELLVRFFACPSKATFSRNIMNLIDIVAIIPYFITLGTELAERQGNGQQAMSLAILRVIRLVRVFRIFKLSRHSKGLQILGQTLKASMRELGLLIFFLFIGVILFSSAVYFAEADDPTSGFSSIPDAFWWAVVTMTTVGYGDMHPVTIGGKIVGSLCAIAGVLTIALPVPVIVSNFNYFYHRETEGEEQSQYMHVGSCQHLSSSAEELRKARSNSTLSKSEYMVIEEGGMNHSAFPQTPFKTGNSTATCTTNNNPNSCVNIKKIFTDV

human Kv1.3 (CHO) = molecular target: T1, human Kv1.3 (CHO) (Homo sapiens, UniProt P22001); experiment: cell-based; format: cell-based; conditions: read-out: Kv1.3 IC50 by IWQ
T1 construct: expressed in transfected cells
T1 sequence (P22001 whole entry): as above

In the case of `CC[C@H](C)[C@@H]1NC(=O)[C@H](CCCCN)NC(=O)[C@@H](NC(=O)[C@H](CCCCN)NC(=O)[C@@H](NC(=O)[C@H](CC(N)=O)NC(=O)[C@@H](NC(=O)[C@@H](NC(=O)[C@@H](NC(=O)CN)C(C)C)[C@@H](C)CC)[C@@H](C)CC)C(C)C)CSSC[C@@H]2NC(=O)[C@H](CCCCN)NC(=O)CNC(=O)[C@H](Cc3ccccc3)NC(=O)[C@H](CCCNC(=N)N)NC(=O)[C@H](CCSC)NC(=O)CNC(=O)[C@H](C)NC(=O)[C@H](CCCCN)NC(=O)[C@H](CCCCN)NC(=O)[C@@H]3CSSC[C@@H](C(=O)N[C@H](C(=O)N[C@@H](CCC(=O)O)C(=O)N[C@@H](CCCCN)C(=O)O)[C@@H](C)O)NC(=O)[C@H](Cc4c[nH]cn4)NC(=O)[C@H](CSSC[C@H](NC(=O)[C@H](CCC(N)=O)NC(=O)[C@H](CCCNC(=N)N)NC(=O)[C@H](CO)NC1=O)C(=O)N[C@@H](CC(C)C)C(=O)N[C@@H](CCC(=O)O)C(=O)N1CCC[C@H]1C(=O)N3)NC(=O)[C@H](CCCCN)NC(=O)CNC(=O)[C@H](CC(N)=O)NC(=O)[C@H](CCSC)NC2=O` [P37E] (H-GVIINVKCKISRQCLEPCKKAGMRFGKCMNGKCHCTEK-OH; disulfide 8-28, 14-33, 18-35), the IC50 [1] is reported as 1.6 nM, the IC50 [2] is reported as 0.239 nM and the “Kv1.3 Selectivity (= Kv1.1/Kv.3 IC50)” value (human Kv1.3) is reported as 65.

For `CC[C@H](C)[C@@H]1NC(=O)[C@H](CCCCN)NC(=O)[C@@H](NC(=O)[C@H](CCCCN)NC(=O)[C@@H](NC(=O)[C@H](CC(N)=O)NC(=O)[C@@H](NC(=O)[C@@H](NC(=O)[C@@H](NC(=O)CN)C(C)C)[C@@H](C)CC)[C@@H](C)CC)C(C)C)CSSC[C@@H]2NC(=O)[C@H](CCCCN)NC(=O)CNC(=O)[C@H](Cc3ccccc3)NC(=O)[C@H](CCCNC(=N)N)NC(=O)[C@H](CCSC)NC(=O)CNC(=O)[C@H](C)NC(=O)[C@H](CCCCN)NC(=O)[C@H](CCCCN)NC(=O)[C@@H]3CSSC[C@@H](C(=O)N[C@H](C(=O)N4CCC[C@H]4C(=O)N[C@@H](CCCCN)C(=O)O)[C@@H](C)O)NC(=O)[C@H](C)NC(=O)[C@H](CSSC[C@H](NC(=O)[C@H](CCC(N)=O)NC(=O)[C@H](CCCNC(=N)N)NC(=O)[C@H](CO)NC1=O)C(=O)N[C@@H](CC(C)C)C(=O)N[C@@H](CCC(=O)O)C(=O)N1CCC[C@H]1C(=O)N3)NC(=O)[C@H](CCCCN)NC(=O)CNC(=O)[C@H](CC(N)=O)NC(=O)[C@H](CCSC)NC2=O` [H34A] (H-GVIINVKCKISRQCLEPCKKAGMRFGKCMNGKCACTPK-OH; disulfide 8-28, 14-33, 18-35), the IC50 [1] was 0.0573 nM, the IC50 [2] was 0.0725 nM and the “Kv1.3 Selectivity (= Kv1.1/Kv.3 IC50)” value (human Kv1.3) was 797.

`CC[C@H](C)[C@@H]1NC(=O)[C@H](CCCCN)NC(=O)[C@@H](NC(=O)[C@H](CCCCN)NC(=O)[C@@H](NC(=O)[C@H](CC(N)=O)NC(=O)[C@@H](NC(=O)[C@@H](NC(=O)[C@@H](NC(=O)CN)C(C)C)[C@@H](C)CC)[C@@H](C)CC)C(C)C)CSSC[C@@H]2NC(=O)[C@H](CCCCN)NC(=O)CNC(=O)[C@H](Cc3ccccc3)NC(=O)[C@H](CCCNC(=N)N)NC(=O)[C@H](CCSC)NC(=O)CNC(=O)[C@H](C)NC(=O)[C@H](CCCCN)NC(=O)[C@H](CCCCN)NC(=O)[C@@H]3CSSC[C@@H](C(=O)N[C@H](C(=O)N4CCC[C@H]4C(=O)N[C@@H](CCCCN)C(=O)O)[C@@H](C)O)NC(=O)[C@H](Cc4c[nH]cn4)NC(=O)[C@H](CSSC[C@H](NC(=O)[C@H](CCC(N)=O)NC(=O)[C@H](C)NC(=O)[C@H](CO)NC1=O)C(=O)N[C@@H](CC(C)C)C(=O)N[C@@H](CCC(=O)O)C(=O)N1CCC[C@H]1C(=O)N3)NC(=O)[C@H](CCCCN)NC(=O)CNC(=O)[C@H](CC(N)=O)NC(=O)[C@H](CCSC)NC2=O` [R12A] (H-GVIINVKCKISAQCLEPCKKAGMRFGKCMNGKCHCTPK-OH; disulfide 8-28, 14-33, 18-35) was tested, and the IC50 [1] was 0.155 nM, the IC50 [2] was 0.123 nM and the “Kv1.3 Selectivity (= Kv1.1/Kv.3 IC50)” value (human Kv1.3) was 17.

E. coli-derived Shk[1-35]-L-Fc gave an IC50 (human Kv1.3 (CHO)) of 2.4 nM.

`CC[C@H](C)[C@@H]1NC(=O)[C@H](CCCCN)NC(=O)[C@@H](NC(=O)[C@H](CCCCN)NC(=O)[C@@H](NC(=O)[C@H](CC(N)=O)NC(=O)[C@@H](NC(=O)[C@@H](NC(=O)[C@@H](NC(=O)CN)C(C)C)[C@@H](C)CC)[C@@H](C)CC)C(C)C)CSSC[C@@H]2NC(=O)[C@H](C)NC(=O)CNC(=O)[C@H](Cc3ccccc3)NC(=O)[C@H](CCCNC(=N)N)NC(=O)[C@H](CCSC)NC(=O)CNC(=O)[C@H](C)NC(=O)[C@H](CCCCN)NC(=O)[C@H](CCCCN)NC(=O)[C@@H]3CSSC[C@@H](C(=O)N[C@H](C(=O)N4CCC[C@H]4C(=O)N[C@@H](CCCCN)C(=O)O)[C@@H](C)O)NC(=O)[C@H](Cc4c[nH]cn4)NC(=O)[C@H](CSSC[C@H](NC(=O)[C@H](CCC(N)=O)NC(=O)[C@H](CCCNC(=N)N)NC(=O)[C@H](CO)NC1=O)C(=O)N[C@@H](CC(C)C)C(=O)N[C@@H](CCC(=O)O)C(=O)N1CCC[C@H]1C(=O)N3)NC(=O)[C@H](CCCCN)NC(=O)CNC(=O)[C@H](CC(N)=O)NC(=O)[C@H](CCSC)NC2=O` [K27A] (H-GVIINVKCKISRQCLEPCKKAGMRFGACMNGKCHCTPK-OH; disulfide 8-28, 14-33, 18-35) was tested, and the IC50 [1] was 1.58 nM, the IC50 [2] was 1.23 nM and the “Kv1.3 Selectivity (= Kv1.1/Kv.3 IC50)” value (human Kv1.3) was 35.

With `CC[C@H](C)[C@@H]1NC(=O)[C@H](CCCCN)NC(=O)[C@@H](NC(=O)[C@H](CCCCN)NC(=O)[C@@H](NC(=O)[C@H](CC(N)=O)NC(=O)[C@@H](NC(=O)[C@@H](NC(=O)[C@@H](NC(=O)CN)C(C)C)[C@@H](C)CC)[C@@H](C)CC)C(C)C)CSSC[C@@H]2NC(=O)[C@H](CCCCN)NC(=O)CNC(=O)[C@H](Cc3ccccc3)NC(=O)[C@H](CCCNC(=N)N)NC(=O)[C@H](CCSC)NC(=O)CNC(=O)[C@H](C)NC(=O)[C@H](CCCCN)NC(=O)[C@H](CCCCN)NC(=O)[C@@H]3CSSC[C@@H](C(=O)N[C@H](C(=O)N4CCC[C@H]4C(=O)N[C@@H](CCCCN)C(=O)O)[C@@H](C)O)NC(=O)[C@H](Cc4c[nH]cn4)NC(=O)[C@H](CSSC[C@H](NC(=O)[C@H](CCC(N)=O)NC(=O)[C@H](CCCNC(=N)N)NC(=O)[C@H](CO)NC1=O)C(=O)N[C@@H](CC(C)C)C(=O)N[C@@H](CCC(=O)O)C(=O)N1CCC[C@H]1C(=O)N3)NC(=O)[C@H](CCCCN)NC(=O)CNC(=O)[C@H](CC(N)=O)NC(=O)[C@H](C)NC2=O` [M29A] (H-GVIINVKCKISRQCLEPCKKAGMRFGKCANGKCHCTPK-OH; disulfide 8-28, 14-33, 18-35) the IC50 [1] was 0.292 nM, the IC50 [2] was 0.447 nM and the “Kv1.3 Selectivity (= Kv1.1/Kv.3 IC50)” value (human Kv1.3) was 105. For the same molecule, the IC50 (human Kv1.3; read-out: Kv1.3 (IC50)) was 0.033 nM.

In the case of `CC[C@H](C)[C@@H]1NC(=O)[C@H](CCCCN)NC(=O)[C@@H](NC(=O)[C@H](CCCCN)NC(=O)[C@@H](NC(=O)[C@H](CC(N)=O)NC(=O)[C@@H](NC(=O)[C@@H](NC(=O)[C@@H](NC(=O)CN)C(C)C)[C@@H](C)CC)[C@@H](C)CC)C(C)C)CSSC[C@@H]2NC(=O)[C@H](CCCCN)NC(=O)CNC(=O)[C@H](Cc3ccccc3)NC(=O)[C@H](CCCNC(=N)N)NC(=O)[C@H](CCSC)NC(=O)CNC(=O)[C@H](C)NC(=O)[C@H](CCCCN)NC(=O)[C@H](CCCCN)NC(=O)[C@@H]3CSSC[C@@H](C(=O)N[C@H](C(=O)N4CCC[C@H]4C(=O)N[C@@H](CCCCN)C(=O)O)[C@@H](C)O)NC(=O)[C@H](Cc4c[nH]cn4)NC(=O)[C@H](CSSC[C@H](NC(=O)[C@H](CCC(N)=O)NC(=O)[C@H](CCCNC(=N)N)NC(=O)[C@H](CO)NC1=O)C(=O)N[C@@H](CCC(=O)O)C(=O)N[C@@H](CCC(=O)O)C(=O)N1CCC[C@H]1C(=O)N3)NC(=O)[C@H](CCCCN)NC(=O)CNC(=O)[C@H](CC(N)=O)NC(=O)[C@H](CCSC)NC2=O` [L15E] (H-GVIINVKCKISRQCEEPCKKAGMRFGKCMNGKCHCTPK-OH; disulfide 8-28, 14-33, 18-35), the IC50 [1] is reported as 1.06 nM, the IC50 [2] is reported as 0.785 nM and the “Kv1.3 Selectivity (= Kv1.1/Kv.3 IC50)” value (human Kv1.3) is reported as 342.

For `CC[C@H](C)[C@@H]1NC(=O)[C@H](CCCCN)NC(=O)[C@@H](NC(=O)[C@H](CCCCN)NC(=O)[C@@H](NC(=O)[C@H](CC(N)=O)NC(=O)[C@@H](NC(=O)[C@@H](NC(=O)[C@@H](NC(=O)CN)C(C)C)[C@@H](C)CC)[C@@H](C)CC)C(C)C)CSSC[C@@H]2NC(=O)[C@H](CCCCN)NC(=O)CNC(=O)[C@H](Cc3ccccc3)NC(=O)[C@H](CCCNC(=N)N)NC(=O)[C@H](CCSC)NC(=O)CNC(=O)[C@H](C)NC(=O)[C@H](CCCCN)NC(=O)[C@H](CCCCN)NC(=O)[C@@H]3CSSC[C@@H](C(=O)N[C@H](C(=O)N4CCC[C@H]4C(=O)N[C@@H](CCCCN)C(=O)O)[C@@H](C)O)NC(=O)[C@H](Cc4c[nH]cn4)NC(=O)[C@H](CSSC[C@H](NC(=O)[C@H](CCC(N)=O)NC(=O)[C@H](CCCNC(=N)N)NC(=O)[C@H](CO)NC1=O)C(=O)N[C@@H](CC(C)C)C(=O)N[C@@H](CCC(=O)O)C(=O)N1CCC[C@H]1C(=O)N3)NC(=O)[C@H](CCCCN)NC(=O)CNC(=O)[C@H](CC(N)=O)NC(=O)[C@H](CCCNC(=N)N)NC2=O` [M29R] (H-GVIINVKCKISRQCLEPCKKAGMRFGKCRNGKCHCTPK-OH; disulfide 8-28, 14-33, 18-35), the IC50 [1] was 7.68 nM, the IC50 [2] was 11.7 nM and the “Kv1.3 Selectivity (= Kv1.1/Kv.3 IC50)” value (human Kv1.3) was 30.

For `CC[C@H](C)[C@@H]1NC(=O)[C@H](CCCCN)NC(=O)[C@@H](NC(=O)[C@H](CCCCN)NC(=O)[C@@H](NC(=O)[C@H](CC(N)=O)NC(=O)[C@@H](NC(=O)[C@@H](NC(=O)[C@@H](NC(=O)CN)C(C)C)[C@@H](C)CC)[C@@H](C)CC)C(C)C)CSSC[C@@H]2NC(=O)[C@H](CCCCN)NC(=O)CNC(=O)[C@H](Cc3ccccc3)NC(=O)[C@H](CCCNC(=N)N)NC(=O)[C@H](CCSC)NC(=O)CNC(=O)[C@H](C)NC(=O)[C@H](CCCCN)NC(=O)[C@H](CCCCN)NC(=O)[C@@H]3CSSC[C@@H](C(=O)N[C@@H](CCC(=O)O)C(=O)N4CCC[C@H]4C(=O)N[C@@H](CCCCN)C(=O)O)NC(=O)[C@H](Cc4c[nH]cn4)NC(=O)[C@H](CSSC[C@H](NC(=O)[C@H](CCC(N)=O)NC(=O)[C@H](CCCNC(=N)N)NC(=O)[C@H](CO)NC1=O)C(=O)N[C@@H](CC(C)C)C(=O)N[C@@H](CCC(=O)O)C(=O)N1CCC[C@H]1C(=O)N3)NC(=O)[C@H](CCCCN)NC(=O)CNC(=O)[C@H](CC(N)=O)NC(=O)[C@H](CCSC)NC2=O` [T36E] (H-GVIINVKCKISRQCLEPCKKAGMRFGKCMNGKCHCEPK-OH; disulfide 8-28, 14-33, 18-35), the IC50 [1] was 2.42 nM, the IC50 [2] was 1.74 nM and the “Kv1.3 Selectivity (= Kv1.1/Kv.3 IC50)” value (human Kv1.3) was 44.
